Experimental data published in publication PMC4786016 (Environmental science & technology, 2015).
Structures can show the parent of a compound that is named as a salt. Where two headings read alike, the source gives them in different places.

Experiments:
[1] = target: T1, human PPARγ1 (Homo sapiens, UniProt P37231)
[2] = target: T1, human PPARγ1; assay: GeneBLAzer PPARγ1 non-DA reporter gene assay; conditions: for Emax: HEK293, read-out: ATVmax: maximal activation% of the tested compounds relative to rosiglitazone
[3] = system: PPARγ; conditions: cited from earlier work
[4] = system: PPARγ2; conditions: PPARγ2, U2OS reporter assay; cited from earlier work
[5] = system: HEK293 cells; assay: Alamar Blue cell viability assay; conditions: high doses
[6] = HEK293 PPARγ1 reporter, 15% of rosiglitazone maximal response
[7] = HEK293 PPARγ1 reporter, 20% of rosiglitazone maximal response

Row | Compound | NOAEL [1] [µM] | ATVmax: maximal activation% of the tested compounds relative to rosiglitazone [2] [%] | EC15 (concentration inducing 15% activation) [2] [µM] | [ATVmax]: concentration of the tested compounds to induce the maximal activation% [2] [µM] | efficacy (qualitative, based on ATVmax) [2] | EC20 (concentration inducing 20% activation) [2] [µM] | also measured
1 | Oc1c(Br)cc(Br)cc1Br [2,4,6-TBP, 2,4,6-tribrominated phenol] | 0.8 | 18 | 5.89 | 7 | + (key: + 7–20%; ++ 20–30%; +++ 30–40%; ++++ 40–50%; +++++ >50%) |  | 
2 | Oc1c(I)cc(I)cc1I [2,4,6-TIP, 2,4,6-triiodinated phenol] | 0.4 | 20 | 8.72 | 11 | ++ (key: + 7–20%; ++ 20–30%; +++ 30–40%; ++++ 40–50%; +++++ >50%) | 11 | 
3 | Oc1c(Br)ccc(Oc2ccc(Br)cc2Br)c1Br [3-OH-BDE47, 3-hydroxide-2,2′,4,4′-tetrabromodiphenyl ether (metabolite)] | 0.8 | 42 | 2.01 | 7 | ++++ (key: + 7–20%; ++ 20–30%; +++ 30–40%; ++++ 40–50%; +++++ >50%) | 2.993 | PPARγ binding potency (in words) [3]: comparable binding potency to rosiglitazone; concentration at which the compound began to activate PPARγ1 [2]: 0.8 µM
4 | Oc1cc(Br)cc(Br)c1Oc1ccc(Br)cc1Br [6-OH-BDE47, 6-hydroxide-2,2′,4,4′-tetrabromodiphenyl ether (metabolite)] |  | <8 |  |  |  |  | PPARγ1 activation (in words) [2]: no activation was observed
5 | CCCCC/C=C/C=C1/C(=O)C=C[C@@H]1C/C=C\CCCC(=O)O [15d-PJG2, 15-Deoxy-D12,14-prostaglandin J2 (endogenous ligands), reference compound] | 0.01 | 85 | 0.51 | 33 | +++++ (key: + 7–20%; ++ 20–30%; +++ 30–40%; ++++ 40–50%; +++++ >50%) | 0.74 | concentration at which the compound began to activate PPARγ1 [2]: 0.01 µM
6 | Brc1ccc(Oc2ccc(Br)cc2Br)c(Br)c1 [BDE47, 2,2′,4,4′-tetrabromodiphenyl ether] | 0.8 |  | 5.2 | 7 | ++ (key: + 7–20%; ++ 20–30%; +++ 30–40%; ++++ 40–50%; +++++ >50%) | 7 | 5% induction concentration [4]: 10 µM; Emax [2]: 20%
7 | CCCCC(CC)COC(=O)/C=C/C(=O)OCC(CC)CCCC (centres unmarked) [BEHF, bis(2-ethylhexyl) fumarate] |  |  |  |  |  |  | Emax [2]: < 8%; PPARγ1 activation (in words) ([2]; reporter assay): did not display any obvious PPARγ1 activation
8 | CCCCOC(=O)c1ccccc1C(=O)OCc1ccccc1 [BzBP, benzylbutyl phthalate] | 0.13 | 34 | 2.94 | 10 | +++ (key: + 7–20%; ++ 20–30%; +++ 30–40%; ++++ 40–50%; +++++ >50%) | 4.81 | 
9 | CCCCOC(=O)c1ccccc1C(=O)OCCCC [DBP, dibutyl phthalate] | 0.4 |  |  |  |  |  | Emax [2]: 23%; [ATVmax]: concentration of the tested compounds to induce the maximal activation% ([2]; HEK293 PPARγ1 reporter): 33 µM; efficacy (qualitative, based on ATVmax) ([2]; HEK293 PPARγ1 reporter): ++ (++ 20–30%); EC15 (concentration inducing 15% activation) [2, 6]: 6.73 µM; EC20 (concentration inducing 20% activation) [2, 7]: 13.6 µM
10 | CCCCC(CC)COC(=O)c1ccccc1C(=O)OCC(CC)CCCC (centres unmarked) [DEHP, bis(2-ethylhexyl) phthalate] |  |  |  |  |  |  | PPARγ1 activation (in words) ([2]; reporter assay): no activation was observed
11 | CC(C)COC(=O)c1ccccc1C(=O)OCC(C)C [DiBP, diisobutyl phthalate] | 0.4 |  | 4.47 | 33 | ++ (key: + 7–20%; ++ 20–30%; +++ 30–40%; ++++ 40–50%; +++++ >50%) | 11.1 | Emax [2]: 25%
12 | CN(CCOc1ccc(CC2SC(=O)NC2=O)cc1)c1ccccn1 (centres unmarked) [Rosi., rosiglitazone (positive control), reference compound] |  |  |  |  |  |  | NOAEL ([2]; HEK293 PPARγ1 reporter, nonobservable adverse effect level): 0.00001 µM
13 | O=C(O)c1cc(Br)c(Br)c(Br)c1Br [TBBA, 2,3,4,5-tetrabromobenzoic acid (metabolite)] | 1.2 | 20 | 8.16 |  | ++ (key: + 7–20%; ++ 20–30%; +++ 30–40%; ++++ 40–50%; +++++ >50%) | 33 | 
14 | CCCCC(CC)COC(=O)c1c(Br)c(Br)c(Br)c(Br)c1C(=O)O (centres unmarked) [TBMEHP, mono-(2-ethyhexyl) tetrabromophthalate (metabolite)] | 0.13 | 40 | 0.53 | 3.3 | ++++ (key: + 7–20%; ++ 20–30%; +++ 30–40%; ++++ 40–50%; +++++ >50%) | 0.78 | cell viability (in words) [5]: reduced viability at higher dosing levels
15 | CC(C)(C)c1ccc(OP(=O)(Oc2ccc(C(C)(C)C)cc2)Oc2ccc(C(C)(C)C)cc2)cc1 [TBPP, tris (4,tert-butyl-phenyl) phosphate] | 0.4 | 12 |  | 11 | + (key: + 7–20%; ++ 20–30%; +++ 30–40%; ++++ 40–50%; +++++ >50%) |  | 
16 | CC(C)(c1cc(Cl)c(O)c(Cl)c1)c1cc(Cl)c(O)c(Cl)c1 [TCBPA, 3,5,3′,5′-tetrachlorobisphenol A] | 0.09 |  |  |  |  |  | [ATVmax]: concentration of the tested compounds to induce the maximal activation% ([2]; HEK293 PPARγ1 reporter): 7 µM; efficacy (qualitative, based on ATVmax) ([2]; HEK293 PPARγ1 reporter): +++++ (+++++ >50%); EC15 (concentration inducing 15% activation) [2, 6]: 0.23 µM; EC20 (concentration inducing 20% activation) [2, 7]: 0.47 µM; ATVmax: maximal activation% of the tested compounds relative to rosiglitazone ([2]; HEK293 PPARγ1 reporter, normalized to maximal response of rosiglitazone): 52%
17 | Oc1cc(Cl)ccc1Oc1ccc(Cl)cc1Cl [TCS, triclosan] |  |  |  |  |  |  | PPARγ binding potency (in words) [3]: moderate binding potency; PPARγ1 activation (in words) [2]: did not initiate any activation of PPARγ1; Emax [2]: < 8%
18 | O=P(Oc1ccccc1)(Oc1ccccc1)Oc1ccccc1 [TPP, triphenyl phosphate] | 0.4 | 43 | 2.12 | 11 | ++++ (key: + 7–20%; ++ 20–30%; +++ 30–40%; ++++ 40–50%; +++++ >50%) | 3.27 | concentration at which the compound began to activate PPARγ1 [2]: about 0.4 μM
19 | c1ccc(OP(Oc2ccccc2)Oc2ccccc2)cc1 [TPPi, triphenyl phosphite] | 1.2 |  |  |  |  |  | 
20 | [Cl][Sn]([c]1ccccc1)([c]1ccccc1)[c]1ccccc1 [TPT, triphenyltin chloride] | 0.0003 | 54 | 0.004 | 0.33 | +++++ (key: + 7–20%; ++ 20–30%; +++ 30–40%; ++++ 40–50%; +++++ >50%) | 0.01 | 
21 | Firemaster 550 (mixture) [FM550] | 1.2 |  |  |  |  |  | 
22 | di-isopropylated triaryl phosphates [Di-ITP] | 1.2 | 16 | 3.25 | 3.6 | + (key: + 7–20%; ++ 20–30%; +++ 30–40%; ++++ 40–50%; +++++ >50%) |  | cell viability (in words) [5]: Highly reduced cell viability
23 | isopropylated triaryl phosphates (mixture) [ITP] | 1.2 |  |  |  |  |  | 
24 | monoisopropylated triaryl phosphates [mono-ITP] | 1.2 | 15 | 3.6 | 3.6 | + (key: + 7–20%; ++ 20–30%; +++ 30–40%; ++++ 40–50%; +++++ >50%) |  | cell viability (in words) [5]: Highly reduced cell viability
25 | tert-butyl phenyl diphenyl phosphate (mixture) [BPDP] | 0.4 |  |  |  |  |  | 
26 | tri(2-butoxyethanol) phosphate [TBOEP] |  | 13 |  | 11 | + (key: + 7–20%; ++ 20–30%; +++ 30–40%; ++++ 40–50%; +++++ >50%) |  | PPARγ binding potency (in words) [3]: significant binding potential at the highest dose level tested
27 | tri-isopropylated triaryl phosphates [Tri-ITP] | 1.2 | 41 | 5.7 | 33 | ++++ (key: + 7–20%; ++ 20–30%; +++ 30–40%; ++++ 40–50%; +++++ >50%) | 7.76 | concentration at which the compound began to activate PPARγ1 [2]: 1.2 µM
